Data set [1] addresses T1, SV2A (Macaca fascicularis, UniProt Q4R4X3).
T1 construct: The current study evaluates [^18F]UCB-H pharmacokinetics in healthy NHPs; from tissue; host or cells: brain of living healthy cynomolgus monkeys (in vivo PET)
Description: Displacement PET studies of [^18F]UCB-H. The data set is classed as in vivo, cynomolgus monkeys (Macaca fascicularis). The method, then: All four non-human primates (NHP) underwent a 2-h (2 h) test and retest PET scan; two NHP underwent an additional 4-h (4 h) retest PET scan. Three NHP underwent one 4-h (4 h) displacement PET scan. Arterial blood sampling was performed during test and retest scans with PET imaging spaced by at least 3 weeks between each scan. To this end, the femoral artery opposite to the saphenous vein used for radioligand injection was cannulated. For the 2-h (2 h) scans, we collected in total 28 blood samples of 1 mL: 16 samples during the first 5 min followed by […] every 5 min and […] every 10 min. For the 4 h scans, we collected an additional 6 samples every 20 min during the last two hours (34 samples in total). Larger samples (2 – 3 mL) were collected at 5, 15, 30, 60, 90, 120 min (2 h) and at 180, 240 min (4 h) for metabolite analysis. Displacement of [^18F]UCB-H was done by intravenous (IV) administration 90 min after [^18F]UCB-H injection of a bolus of 30 mg/kg LEV, or of 80 µg/kg (≈250 nmol/kg) or 5 mg/kg (≈15 µmol/kg) of cold [^19F]-UCB-H. Full experimental design of all NHP is outlined in Additional file 1: Table 1.
Solvents and LEV (C8H14N2O2; MM 170.21 g/mol) were obtained at Sigma-Aldrich® (France), and [^19F]-UCB-H (C16H12F4N2O; MM 324.28 g/mol) was synthesised as previously described. Injectable solutions of [^19F]-UCB-H for displacement studies were prepared with a mixture of Tetrahydrofuran (THF), Médialipide® and glucose at 2.5% as previously described. LEV was dissolved in a glucose solution of 2.5% to reach a concentration of 90 mg/mL.
PET image analysis was performed using PMOD software version 3.8 (PMOD Technologies Ltd., Zurich, Suisse). After individual co-registration of PET-MR images, a cynomolgus atlas published by Ballanger and coworkers was normalized to PET images to extract time activity curves in different brain regions. Volumes of interest (VOI) were cerebral white matter (16.7 cm^3), striatum (0.24 cm^3), thalamus (0.89 cm^3), cerebellum (3.83 cm^3), frontal—(2.50 cm^3), parietal—(5.35 cm^3), and temporal (8.22 cm^3) cortex, and whole brain (72.2 cm^3) as a composite region of all regions in the atlas. [^18F]UCB-H pharmacokinetics were evaluated by analyzing the time activity curves of the test- and retest scans using 1- and 2-tissue compartment models (unconstrained and constrained with global K1/k2 coupled fit across all regions, further referred to as 2TCM and 2TCM-c), and Logan graphical analysis with a fixed t* at 60 min [33] using the arterial plasma input function corrected for radio-metabolites to derive the volume of distribution in each region. Percentage standard error (%SE) was estimated from the theoretical parameter covariance matrix. Only reliable estimates (%SE less than 25%) were included in the current analyses. For the three drug studies, percent displacement of the total activity in the whole brain was estimated relative to an average baseline constructed from the two 4 h baseline studies. Briefly, Standardized Uptake Value (SUV) time activity curves (TACs) were calculated for the two baseline and the three displacement studies. Then, each curve was normalized to the SUV at t = 90 min, corresponding to the timeframe immediately before the administration of the drugs in the displacement studies. Baseline curves were averaged and the percent displacement of total activity was calculated as (baseline-displacement)/baseline at a given time post drug administration (see “Results”).

The test system of data set [2] is SV2A. Also on record: method as in PMID 30084043, PMID 31728839. The settings on record: cited from earlier work.
Data set [3] addresses SV2A. Set-up: method as in PMID 31728839. As to conditions: human brain; read-out: in vitro Ki; cited from earlier work.
In data set [4] the target is SV2A. Also on record: method as in PMID 26848175. As to conditions: NHP; read-out: in vivo KD; cited from earlier work.

The values below come from PMC8026785, “The pharmacokinetics of [^18F]UCB-H revisited in the healthy non-human primate brain” (EJNMMI Research, 2021).

Bounds are passed on as bounds.

One may read the Ki as a measure of affinity in units of concentration, obtained from inhibition or displacement. By Kd is commonly meant a measure of binding affinity in units of concentration.

T1 sequence (Q4R4X3 whole entry): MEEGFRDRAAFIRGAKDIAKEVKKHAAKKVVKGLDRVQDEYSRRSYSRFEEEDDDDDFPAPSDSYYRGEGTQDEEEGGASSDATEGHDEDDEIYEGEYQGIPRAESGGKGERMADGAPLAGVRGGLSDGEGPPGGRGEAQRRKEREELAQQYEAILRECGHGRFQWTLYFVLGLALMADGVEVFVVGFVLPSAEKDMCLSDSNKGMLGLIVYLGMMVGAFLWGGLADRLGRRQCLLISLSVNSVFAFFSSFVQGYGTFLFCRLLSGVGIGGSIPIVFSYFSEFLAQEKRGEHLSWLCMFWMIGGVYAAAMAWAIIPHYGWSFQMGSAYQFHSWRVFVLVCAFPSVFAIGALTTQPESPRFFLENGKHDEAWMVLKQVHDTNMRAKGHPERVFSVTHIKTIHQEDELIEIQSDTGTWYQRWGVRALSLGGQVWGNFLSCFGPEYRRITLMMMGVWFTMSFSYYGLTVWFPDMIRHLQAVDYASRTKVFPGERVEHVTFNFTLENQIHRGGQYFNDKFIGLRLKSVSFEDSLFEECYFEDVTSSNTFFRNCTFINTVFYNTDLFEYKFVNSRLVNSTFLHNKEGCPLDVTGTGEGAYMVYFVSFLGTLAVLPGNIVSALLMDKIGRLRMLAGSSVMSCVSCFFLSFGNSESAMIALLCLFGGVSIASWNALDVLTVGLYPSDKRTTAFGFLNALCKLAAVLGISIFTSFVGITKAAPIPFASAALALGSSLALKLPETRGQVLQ

Regarding `CC[C@@H](C(N)=O)N1CCCC1=O` [LEV, levetiracetam, reference compound], the “displacement of [^18F]UCB-H total uptake” value at SV2A [1] (30 mg/kg i.v. at 90 min, estimated 150 min (2.5 h) after injection) was ~ 40%. Also, the receptor occupancy at 30 mg/kg at SV2A [1] (cynomolgus monkey, iv, read-out: SV2A occupancy) fell in the range of 75 to 80%.

Regarding `Cc1cnccc1CN1C[C@@H](c2cc(F)cc([18F])c2)CC1=O` [[^18F]MNI-1126], in the data set with SV2A [2], the “affinity” value was “high affinity”.

Turning to `Cc1cnccc1CN1CC(c2cc(F)cc([18F])c2)CC1=O` (stereo not drawn) [[^18F]MNI-1128], the “affinity” value in the data set with SV2A [2] is “low affinity”.

Regarding `O=C1CC(c2cc(F)c(F)c(F)c2)CN1Cc1ccncc1F` (stereo not drawn) [[^19F]UCB-H], the “displacement of [^18F]UCB-H total uptake” value on SV2A [1] (5 mg/kg i.v. at 90 min, estimated 35 min after injection of cold compound) is 50%. This compound also yielded an SV2A occupancy expected at SV2A [1] (5 mg/kg, KD 30 nM) greater than 98%. On SV2A [1] (after 5.0 mg/kg, based on brain uptake curves and fND ~6%), this compound yielded a maximum free concentration in brain of roughly 2.5 µM. Besides, the Ki at SV2A [3] is 0.009 µM. Further, the Kd at SV2A [4] is 0.03 µM.
